Measurements taken from patent US12590130B2, “Bipartite molecules and uses thereof in treating diseases associated with abnormal protein aggregates” (ACADEMIA SINICA, priority 2014, dated 2026).

What was measured:
APP×PS1 transgenic mice [1] = test: Thioflavin S staining of amyloid plaques in APP×PS1 mice; assay type: in vivo, mouse; conditions: vs PEI
APP×PS1 transgenic mice [2] = test: Morris water maze in APP×PS1 transgenic mice; assay type: in vivo, mouse; conditions: vs PEI
Description: FIG. 12. R8-Aβ(25-35)-PEI improved memory as measured by the Morris water maze assay. Panel A: Plot of the escape latency period of wild type (WT) and APP×PS1 transgenic (Tg) mice of 8 months of age treated with either PEI or R8-Aβ(25-35) peptide from the age of 4 months to 8 months. […] Panel B: Percentage of time of WT or Tg mice treated as indicated spent in swimming in the target quadrant where the hidden platform used to be. The times of the indicated mice crossing the target quadrant. […] Panel C: The percentage of time of the WT or Tg mice as indicated crossing the target quadrant. Ten mice per group were used in this study. The statistics were performed with two way ANOVA with Fisher's LSD posthoc analysis. N=10/group *<0.05; ***<0.0005; ****<0.0001
(§1) APP×PS1 transgenic mice (B6C3-Tg (APPswe,PSEN1dE9) 85Dbo/Mmjax, purchased from Jackson Laboratories (USA), were bred and genotyped following the vendor's protocols. Borchelt et al., Neuron (1996) 17:1005-13; and Jankowsky et al., Biomol Eng (2001) 17:157-65. The mice had access to food and water ad libitum and were kept on a 12:12 h light-dark cycle. PEI and R8A β 25-35-PEI were dissolved in 100 mM NaH2PO4/138 mM KCl (pH 5) to a final concentration of 400 μM. For intranasal administration, 2.5 μL PEI or R8-A β (25-35)-PEI was given to each nostril of one mouse when they were […] for six days/week until they were 8 months of age. Mice were then tested with a Morris water maze. Treatment were resumed after a 6-week break for the water maze test, and continued until the mice were 12 months of age.
The maze was made of white opaque plastic with a diameter of 120 cm and contained 40 cm high walls. It was filled with milk/water at 25° C. […] The path length and escape latencies were recorded (n=10 per group). Acquisition data, such as time taken to reach the escape platform and path length were analyzed by two-way repeated measures ANOVA. […] The platform was removed from the maze and animals were allowed to swim freely for 90 s and the swimming path was recorded and analyzed.

APP×PS1 transgenic mice [3] = test: Cytometric bead array for IL-6 and IL-1β in brain of APP×PS1 mice; assay type: in vivo, mouse; conditions: cortex, 8 month-old Tg mice
Method: as §1
A cytometric bead array (CBA, mouse inflammation kit; BD Biosciences) was used to quantitatively measure cytokine expression levels in the control and treated mouse brain tissue lysates. […] This method quantifies soluble particles, in this case, cytokines, using a fluorescence-based detection mechanism. The beads, coated with the desired cytokine, IL-6 and IL-1B, reacted with the test lysates and standards, to which fluorescence dyes were then added. The assay was performed according to the manufacturer's instructions and analyzed on the FACS Calibur (Becton Dickinson). […]

109QmHtt aggregates = test: Co-localization of TAMRA-labeled peptide with 109QmHtt aggregates in Neuro2a cells; assay type: cell-based; conditions: Neuro2a cells expressing 109QmHtt
Method: FIG. 3. Diagrams showing the co-localization of tested bipartite peptides with the 109QmHtt aggregates. Panel A: Structure of TAMRA-labeled 8R10Q used in this study. Panel B: Epifluorescence micrographs of Neuro2a cells expressing 109QmHtt treated with TAMRA-8R10Q (8R10Q) at various time points. Note the co-localization of 8R10Q and 109QmHttGFP aggregates (GFP) from 8-24 hours (arrows). Scale bar: 10 μm. Panel C: TIRF micrographs of the Neuro2a expressing 109QmHtt treated with water or peptides as indicated at various time points. Note the decrease in aggregate size in 8R10Q and 8R15Q-treated cells. Panel D: Quantitation of the size of individual aggregates in Neuro2a at 8 hours (left) and 24 hours (right) after peptide treatment. […] Panel E: Quantitation of the number of aggregates in 20 Neuro2a cells at 12 hours (left) and 24 hours (right) after peptide treatment. Both the 8R10Q and 8R15Q increased the number of aggregates. Statistics performed with one way ANOVA. **p<0.01; ***p<0.001.
The ability of 8R10Q to bind to the 109QmHtt was examined by determining its co-localization with the 109QmHtt aggregates. The 8R10Q peptide was labeled with carboxytetramethylrhodamine (TAMRA) dye (FIG. 3, panel A), and added into Neuro2a cells expressing 25QHtt or 109QmHtt.

[4] = Solubility of therapeutic peptides; assay type: physicochemical; conditions: DMEM/10% FBS
Method: In this study, the rational design was tested for HD. Several bipartite therapeutic peptides containing 8 consecutive arginines (8R) attached to a stretch of consecutive glutamines (polyQ) were synthesized and their biological activity of decreasing the aggregation propensity of the mHtt protein was investigated. The length of the polyQ of these bipartite peptides was 5 (8R5Q), 10 (8R10Q), 15 (8R15Q) or 20 (8R20Q) (Table 2).

Sequence of 109QmHtt aggregates (P42858 with tags, fused parts or gaps limits assumed): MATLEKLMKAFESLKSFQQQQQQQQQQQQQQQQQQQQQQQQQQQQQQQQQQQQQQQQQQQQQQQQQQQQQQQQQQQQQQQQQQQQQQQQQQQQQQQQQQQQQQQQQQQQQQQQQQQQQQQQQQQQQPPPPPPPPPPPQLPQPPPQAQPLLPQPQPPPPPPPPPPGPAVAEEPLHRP

Substance | number of plaques (APP×PS1 transgenic mice [1]; cortex and hippocampus, 8 month-old) | percentage of the plaque areas (APP×PS1 transgenic mice [1]; cortex and hippocampus) | total area of amyloid plaques (APP×PS1 transgenic mice [1]; cortex and hippocampus) | average size of individual plaques (APP×PS1 transgenic mice [1]) | escape latency / learning to find hidden platform (APP×PS1 transgenic mice [2]; Tg mice 8 months of age, intranasal) | time spent in the target quadrant (probe test) (APP×PS1 transgenic mice [2]; Tg mice) | learning curve of finding the hidden platform (APP×PS1 transgenic mice [2]; wild-type mice) | level of IL-1β (APP×PS1 transgenic mice [3]) | level of IL-6 (APP×PS1 transgenic mice [3]) | co-localization with 109QmHtt aggregates (109QmHtt aggregates) | Solubility (DMEM/10% FBS) [4]
RRRRRRRRGSNKGAIIGLM-PEI (not fully specified; PEI conjugate) [R8-Aβ(25-35)-PEI] | significantly reduced | significantly decreased | correspondingly decreased | failed to reach statistical significance | significant shortening of the latency | increased the time of Tg mice in the target quadrant | no clear difference in the learning curve | effectively decreased | effectively decreased | – | –
TAMRA-NH-(R)8-W-D-(Q)10-CONH2 ({TAMRA}-RRRRRRRRWDQQQQQQQQQQ-NH2) [TAMRA-8R10Q] | – | – | – | – | – | – | – | – | – | co-localized with the aggregates | Soluble
